This note sets out measurements from ChEMBL document CHEMBL3991601, “The target landscape of clinical kinase drugs” (Science, 2017).

The source made the active and inactive calls. For most assays here, no stated cut-off is given here; in the data, actives have a measured Kd and inactives only a lower limit.

In assay [1] the target is Mitotic checkpoint serine/threonine-protein kinase BUB1 (Homo sapiens, UniProt O43683).
Assay [2] addresses Cyclin-dependent kinase 12 (Homo sapiens, UniProt Q9NYV4).
For assay [3], the target named is Casein kinase I isoform delta (Homo sapiens, UniProt P48730).
Assay [4] deals with T1, ATP-dependent RNA helicase DDX1 (Homo sapiens, UniProt Q92499).
T1 sequence (Q92499 whole entry): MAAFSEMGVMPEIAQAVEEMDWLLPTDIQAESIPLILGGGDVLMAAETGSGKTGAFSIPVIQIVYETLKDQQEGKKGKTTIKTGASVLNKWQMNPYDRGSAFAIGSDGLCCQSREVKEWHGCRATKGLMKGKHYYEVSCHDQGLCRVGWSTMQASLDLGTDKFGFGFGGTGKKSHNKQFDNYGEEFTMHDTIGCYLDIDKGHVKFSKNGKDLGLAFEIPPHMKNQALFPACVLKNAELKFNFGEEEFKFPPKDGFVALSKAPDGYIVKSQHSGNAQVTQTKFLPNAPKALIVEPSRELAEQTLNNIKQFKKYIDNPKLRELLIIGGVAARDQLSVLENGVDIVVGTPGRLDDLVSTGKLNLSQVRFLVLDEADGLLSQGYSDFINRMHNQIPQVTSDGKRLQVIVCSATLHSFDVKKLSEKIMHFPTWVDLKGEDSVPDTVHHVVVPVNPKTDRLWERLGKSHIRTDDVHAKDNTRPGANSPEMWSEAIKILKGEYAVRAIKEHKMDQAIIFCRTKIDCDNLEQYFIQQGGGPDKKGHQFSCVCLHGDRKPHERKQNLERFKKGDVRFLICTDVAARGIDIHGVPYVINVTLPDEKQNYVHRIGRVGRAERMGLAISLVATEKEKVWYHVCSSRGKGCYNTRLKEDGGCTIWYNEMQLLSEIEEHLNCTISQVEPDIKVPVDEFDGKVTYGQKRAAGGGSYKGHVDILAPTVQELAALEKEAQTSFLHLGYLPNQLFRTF

Assay [5] deals with Tyrosine-protein kinase Fer (Homo sapiens, UniProt P16591).
Assay [6] concerns the target T2, Serine/threonine-protein kinase ICK (Homo sapiens, UniProt Q9UPZ9).
T2 sequence (Q9UPZ9 whole entry): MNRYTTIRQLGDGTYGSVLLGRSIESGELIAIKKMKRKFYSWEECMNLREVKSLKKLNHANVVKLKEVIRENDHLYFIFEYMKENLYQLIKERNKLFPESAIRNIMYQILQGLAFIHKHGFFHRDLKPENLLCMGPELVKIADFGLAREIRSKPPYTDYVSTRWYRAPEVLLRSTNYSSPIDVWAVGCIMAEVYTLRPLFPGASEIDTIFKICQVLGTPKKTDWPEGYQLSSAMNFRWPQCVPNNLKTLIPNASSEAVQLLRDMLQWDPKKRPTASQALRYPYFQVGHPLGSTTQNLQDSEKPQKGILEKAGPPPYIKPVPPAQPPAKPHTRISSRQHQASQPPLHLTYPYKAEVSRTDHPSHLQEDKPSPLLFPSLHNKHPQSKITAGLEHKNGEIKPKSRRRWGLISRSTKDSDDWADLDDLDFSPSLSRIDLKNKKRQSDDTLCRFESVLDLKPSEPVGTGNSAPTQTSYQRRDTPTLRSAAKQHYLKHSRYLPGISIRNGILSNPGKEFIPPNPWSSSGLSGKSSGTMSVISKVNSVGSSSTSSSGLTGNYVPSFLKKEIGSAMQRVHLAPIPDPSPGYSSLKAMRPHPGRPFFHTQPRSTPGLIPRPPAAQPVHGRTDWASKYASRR

In assay [7] the target is Tyrosine-protein kinase JAK1 (Homo sapiens, UniProt P23458).
For assay [8], the target named is T3, Mitogen-activated protein kinase kinase kinase kinase 3 (Homo sapiens, UniProt Q8IVH8).
T3 sequence (Q8IVH8 whole entry): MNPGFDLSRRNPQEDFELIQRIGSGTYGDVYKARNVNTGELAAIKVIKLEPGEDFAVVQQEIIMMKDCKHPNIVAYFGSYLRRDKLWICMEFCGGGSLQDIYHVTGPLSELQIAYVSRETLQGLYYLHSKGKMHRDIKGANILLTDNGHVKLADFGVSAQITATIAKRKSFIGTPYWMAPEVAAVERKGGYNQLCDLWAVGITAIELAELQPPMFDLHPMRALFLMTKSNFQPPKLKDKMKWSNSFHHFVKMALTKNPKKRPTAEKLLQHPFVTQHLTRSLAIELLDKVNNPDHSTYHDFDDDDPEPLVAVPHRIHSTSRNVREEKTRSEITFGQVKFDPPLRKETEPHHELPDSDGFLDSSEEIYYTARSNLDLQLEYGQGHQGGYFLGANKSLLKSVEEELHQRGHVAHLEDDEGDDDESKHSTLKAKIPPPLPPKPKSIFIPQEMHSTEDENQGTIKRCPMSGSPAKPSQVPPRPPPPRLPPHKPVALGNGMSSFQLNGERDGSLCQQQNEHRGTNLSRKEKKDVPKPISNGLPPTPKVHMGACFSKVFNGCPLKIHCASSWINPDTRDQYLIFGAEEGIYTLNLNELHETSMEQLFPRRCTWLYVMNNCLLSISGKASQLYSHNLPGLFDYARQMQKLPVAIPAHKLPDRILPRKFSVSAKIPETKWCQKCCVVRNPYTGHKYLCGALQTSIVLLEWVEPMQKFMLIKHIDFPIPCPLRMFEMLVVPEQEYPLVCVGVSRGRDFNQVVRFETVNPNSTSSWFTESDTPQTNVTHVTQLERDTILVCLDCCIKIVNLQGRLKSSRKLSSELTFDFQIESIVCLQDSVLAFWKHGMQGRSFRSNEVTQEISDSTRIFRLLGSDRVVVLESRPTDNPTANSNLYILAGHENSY

Assay [9] has as its target cAMP-dependent protein kinase catalytic subunit beta (Homo sapiens, UniProt P22694).
Assay [10] has as its target Protein-tyrosine kinase 2-beta (Homo sapiens, UniProt Q14289).
For assay [11], the target named is T4, Ras-related protein Rab-27A (Homo sapiens, UniProt P51159).
T4 sequence (P51159 whole entry): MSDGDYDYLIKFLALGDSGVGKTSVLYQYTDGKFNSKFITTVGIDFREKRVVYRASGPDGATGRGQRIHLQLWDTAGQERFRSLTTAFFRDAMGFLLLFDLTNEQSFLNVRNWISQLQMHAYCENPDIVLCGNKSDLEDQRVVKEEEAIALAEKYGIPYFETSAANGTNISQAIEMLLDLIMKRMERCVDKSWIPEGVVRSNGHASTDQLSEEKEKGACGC

Assay [12] addresses Non-receptor tyrosine-protein kinase TYK2 (Homo sapiens, UniProt P29597).

Casein kinase I isoform delta, sequence (P48730 whole entry, canonical isoform): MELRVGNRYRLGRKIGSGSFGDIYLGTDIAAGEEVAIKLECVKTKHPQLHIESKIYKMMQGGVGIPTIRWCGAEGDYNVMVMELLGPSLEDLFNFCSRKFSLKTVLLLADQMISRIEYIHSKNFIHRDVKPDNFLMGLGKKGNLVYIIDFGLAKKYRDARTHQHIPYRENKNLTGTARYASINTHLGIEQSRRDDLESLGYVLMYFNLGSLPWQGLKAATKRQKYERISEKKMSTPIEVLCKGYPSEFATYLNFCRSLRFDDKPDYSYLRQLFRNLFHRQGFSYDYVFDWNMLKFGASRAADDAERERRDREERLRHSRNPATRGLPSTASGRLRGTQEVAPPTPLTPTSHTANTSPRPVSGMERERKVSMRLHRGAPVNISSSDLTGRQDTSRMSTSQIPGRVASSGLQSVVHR
Mitotic checkpoint serine/threonine-protein kinase BUB1, sequence (O43683 whole entry): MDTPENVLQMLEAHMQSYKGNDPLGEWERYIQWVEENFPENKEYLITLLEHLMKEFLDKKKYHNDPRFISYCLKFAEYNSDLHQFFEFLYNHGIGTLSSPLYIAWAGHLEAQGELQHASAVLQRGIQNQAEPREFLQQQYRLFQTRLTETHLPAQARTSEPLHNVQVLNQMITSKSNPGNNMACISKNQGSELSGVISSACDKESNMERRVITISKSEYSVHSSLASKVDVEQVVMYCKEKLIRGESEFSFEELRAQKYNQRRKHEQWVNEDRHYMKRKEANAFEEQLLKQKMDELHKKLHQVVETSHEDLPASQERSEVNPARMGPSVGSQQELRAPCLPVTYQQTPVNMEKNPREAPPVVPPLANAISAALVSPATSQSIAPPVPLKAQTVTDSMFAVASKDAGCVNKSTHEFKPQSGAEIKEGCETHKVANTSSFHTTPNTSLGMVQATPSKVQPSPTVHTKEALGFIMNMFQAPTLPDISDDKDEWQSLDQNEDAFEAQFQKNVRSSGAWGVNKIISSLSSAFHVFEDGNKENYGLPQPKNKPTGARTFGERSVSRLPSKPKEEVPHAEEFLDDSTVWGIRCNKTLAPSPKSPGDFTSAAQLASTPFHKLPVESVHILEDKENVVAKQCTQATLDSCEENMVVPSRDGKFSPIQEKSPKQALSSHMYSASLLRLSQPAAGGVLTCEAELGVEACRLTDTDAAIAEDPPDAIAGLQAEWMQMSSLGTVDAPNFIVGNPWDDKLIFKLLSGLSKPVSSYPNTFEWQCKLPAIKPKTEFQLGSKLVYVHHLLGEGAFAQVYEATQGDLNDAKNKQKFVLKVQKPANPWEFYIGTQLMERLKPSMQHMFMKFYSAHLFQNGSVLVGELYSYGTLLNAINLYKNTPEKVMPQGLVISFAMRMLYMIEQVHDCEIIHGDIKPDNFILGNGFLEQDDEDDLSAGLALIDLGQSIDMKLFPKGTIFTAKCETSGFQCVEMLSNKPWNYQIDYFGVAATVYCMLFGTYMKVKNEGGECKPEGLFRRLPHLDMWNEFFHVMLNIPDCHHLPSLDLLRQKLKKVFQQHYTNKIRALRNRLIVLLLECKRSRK
Cyclin-dependent kinase 12, sequence (Q9NYV4 whole entry, canonical isoform): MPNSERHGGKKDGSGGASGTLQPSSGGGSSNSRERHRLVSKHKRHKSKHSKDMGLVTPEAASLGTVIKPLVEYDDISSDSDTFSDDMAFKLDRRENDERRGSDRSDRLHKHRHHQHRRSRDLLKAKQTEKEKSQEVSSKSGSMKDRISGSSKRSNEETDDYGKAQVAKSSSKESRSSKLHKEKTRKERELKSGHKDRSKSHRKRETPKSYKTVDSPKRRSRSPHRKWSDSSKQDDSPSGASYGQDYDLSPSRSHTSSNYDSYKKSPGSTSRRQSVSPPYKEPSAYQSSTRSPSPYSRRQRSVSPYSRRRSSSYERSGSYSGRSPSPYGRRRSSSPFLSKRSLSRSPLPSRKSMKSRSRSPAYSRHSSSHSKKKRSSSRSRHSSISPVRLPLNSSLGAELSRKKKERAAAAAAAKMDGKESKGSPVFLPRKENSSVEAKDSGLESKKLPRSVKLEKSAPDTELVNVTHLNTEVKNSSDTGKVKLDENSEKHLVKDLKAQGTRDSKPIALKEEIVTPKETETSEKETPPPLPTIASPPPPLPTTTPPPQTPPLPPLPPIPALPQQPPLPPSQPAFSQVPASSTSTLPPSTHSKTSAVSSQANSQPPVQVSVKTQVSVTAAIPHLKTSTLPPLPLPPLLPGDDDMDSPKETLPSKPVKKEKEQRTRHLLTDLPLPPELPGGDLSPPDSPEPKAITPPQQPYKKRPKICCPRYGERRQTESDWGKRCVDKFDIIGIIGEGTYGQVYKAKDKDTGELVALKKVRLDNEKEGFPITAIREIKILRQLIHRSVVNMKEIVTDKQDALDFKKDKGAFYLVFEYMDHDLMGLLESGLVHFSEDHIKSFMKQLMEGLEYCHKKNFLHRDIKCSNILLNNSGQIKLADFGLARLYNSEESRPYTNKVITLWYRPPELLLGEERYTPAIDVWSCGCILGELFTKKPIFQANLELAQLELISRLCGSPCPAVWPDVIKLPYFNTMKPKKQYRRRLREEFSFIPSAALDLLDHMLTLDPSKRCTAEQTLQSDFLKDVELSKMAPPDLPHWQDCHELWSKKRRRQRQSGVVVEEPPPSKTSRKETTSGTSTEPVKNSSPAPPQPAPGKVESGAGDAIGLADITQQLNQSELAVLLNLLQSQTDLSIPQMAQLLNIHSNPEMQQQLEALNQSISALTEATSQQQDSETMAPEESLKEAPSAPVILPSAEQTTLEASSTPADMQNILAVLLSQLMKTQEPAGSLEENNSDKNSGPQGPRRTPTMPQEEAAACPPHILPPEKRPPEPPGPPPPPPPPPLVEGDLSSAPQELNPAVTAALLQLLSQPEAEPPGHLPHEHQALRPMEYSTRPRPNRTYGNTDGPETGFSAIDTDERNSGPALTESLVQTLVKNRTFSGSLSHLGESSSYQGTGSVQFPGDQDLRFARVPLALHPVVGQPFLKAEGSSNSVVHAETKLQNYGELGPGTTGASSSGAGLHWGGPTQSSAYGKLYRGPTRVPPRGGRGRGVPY
Protein-tyrosine kinase 2-beta, sequence (Q14289 whole entry): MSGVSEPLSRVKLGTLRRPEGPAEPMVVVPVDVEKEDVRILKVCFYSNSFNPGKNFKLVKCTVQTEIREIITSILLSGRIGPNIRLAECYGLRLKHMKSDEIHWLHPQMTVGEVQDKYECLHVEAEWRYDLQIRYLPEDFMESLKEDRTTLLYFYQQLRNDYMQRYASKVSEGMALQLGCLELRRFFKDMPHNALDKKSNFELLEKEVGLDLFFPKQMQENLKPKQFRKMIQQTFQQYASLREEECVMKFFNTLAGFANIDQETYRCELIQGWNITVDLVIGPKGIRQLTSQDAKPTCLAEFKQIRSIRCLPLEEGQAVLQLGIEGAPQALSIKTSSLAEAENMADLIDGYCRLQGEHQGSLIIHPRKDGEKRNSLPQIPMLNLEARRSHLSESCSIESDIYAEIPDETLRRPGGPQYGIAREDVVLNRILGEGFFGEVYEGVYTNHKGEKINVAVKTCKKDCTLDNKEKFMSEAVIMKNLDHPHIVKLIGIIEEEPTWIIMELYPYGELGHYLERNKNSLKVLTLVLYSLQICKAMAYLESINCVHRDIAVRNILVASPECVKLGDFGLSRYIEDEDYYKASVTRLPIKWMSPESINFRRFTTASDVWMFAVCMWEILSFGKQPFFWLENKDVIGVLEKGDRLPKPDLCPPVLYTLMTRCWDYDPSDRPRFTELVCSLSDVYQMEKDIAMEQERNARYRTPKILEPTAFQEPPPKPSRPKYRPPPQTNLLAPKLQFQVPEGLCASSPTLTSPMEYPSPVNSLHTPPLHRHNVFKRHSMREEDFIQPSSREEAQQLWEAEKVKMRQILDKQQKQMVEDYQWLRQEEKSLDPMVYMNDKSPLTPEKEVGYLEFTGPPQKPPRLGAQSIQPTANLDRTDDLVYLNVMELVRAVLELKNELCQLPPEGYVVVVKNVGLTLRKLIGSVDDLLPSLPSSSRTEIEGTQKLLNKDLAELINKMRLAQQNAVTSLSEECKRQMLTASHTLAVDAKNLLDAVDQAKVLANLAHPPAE
Tyrosine-protein kinase Fer, sequence (P16591 whole entry): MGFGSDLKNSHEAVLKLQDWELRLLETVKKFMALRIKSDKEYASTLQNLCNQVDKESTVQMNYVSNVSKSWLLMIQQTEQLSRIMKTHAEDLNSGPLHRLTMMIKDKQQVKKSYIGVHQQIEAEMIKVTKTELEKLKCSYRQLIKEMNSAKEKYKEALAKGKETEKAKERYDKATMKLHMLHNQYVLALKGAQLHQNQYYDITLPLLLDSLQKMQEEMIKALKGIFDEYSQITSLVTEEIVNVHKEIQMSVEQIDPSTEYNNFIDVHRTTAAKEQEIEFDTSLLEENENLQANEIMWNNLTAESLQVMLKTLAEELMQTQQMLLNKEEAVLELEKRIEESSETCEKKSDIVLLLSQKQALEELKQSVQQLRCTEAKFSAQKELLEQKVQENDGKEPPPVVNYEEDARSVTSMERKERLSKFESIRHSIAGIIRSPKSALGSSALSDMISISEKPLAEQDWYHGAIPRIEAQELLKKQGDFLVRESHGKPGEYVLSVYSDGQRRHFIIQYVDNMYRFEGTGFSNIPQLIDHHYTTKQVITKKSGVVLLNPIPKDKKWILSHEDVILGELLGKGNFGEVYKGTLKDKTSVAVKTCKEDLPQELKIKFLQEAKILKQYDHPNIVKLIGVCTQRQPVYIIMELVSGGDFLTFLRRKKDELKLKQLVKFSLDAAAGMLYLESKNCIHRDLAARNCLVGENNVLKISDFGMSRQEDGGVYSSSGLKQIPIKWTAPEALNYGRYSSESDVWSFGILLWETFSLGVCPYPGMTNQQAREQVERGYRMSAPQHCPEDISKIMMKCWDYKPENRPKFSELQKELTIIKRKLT

Consider `CCn1c(=O)c(-c2cc[nH]n2)cc2c(C)nc(N)nc21` [VOXTALISIB], for which the Kd in [1], in assay [2], in assay [3], in assay [4], in assay [5] and in assay [6] was > 30 µM (inactive) throughout. The Kd in [7], in assay [8], in assay [9], in assay [10], in assay [11] and in assay [12] was > 30 µM (inactive) each time.
Take `Cc1cc2c(F)c(Oc3ncnn4cc(OC[C@@H](C)OC(=O)[C@H](C)N)c(C)c34)ccc2[nH]1` [BRIVANIB ALANINATE]: the Kd in assay [1], in assay [2], in assay [3], in assay [4], in [5] and in assay [6] was > 30 µM (inactive) throughout. Also, the Kd in assay [7], in assay [8], in [9], in assay [10], in assay [11] and in [12] was > 30 µM (inactive) each time.
Take `CN1CCC(CNc2ccc3ncc(-c4cccc(OC(F)(F)F)c4)n3n2)CC1` [SGI-1776]: the Kd in assay [1], in [2], in assay [3], in assay [4], in assay [5] and in [6] was > 30 µM (inactive) in each case. Moreover, the Kd in assay [7], in [8], in [9], in assay [10], in assay [11] and in assay [12] was > 30 µM (inactive) throughout.
Turning to `CC[C@H](Nc1ncnc2[nH]cnc12)c1nc2cccc(F)c2c(=O)n1-c1ccccc1` [IDELALISIB], the Kd in assay [1], in assay [2], in assay [3], in [4], in assay [5] and in assay [6] was > 30 µM (inactive) in each case. In addition, the Kd in assay [7], in assay [8], in assay [9], in assay [10], in [11] and in [12] was > 30 µM (inactive) in each case.
Turning to `COC(=O)N[C@@H](C)CNc1nccc(-c2cn(C(C)C)nc2-c2cc(Cl)cc(NS(C)(=O)=O)c2F)n1` [ENCORAFENIB], the Kd in assay [1], in assay [2], in [3], in [4], in assay [5] and in assay [6] was > 30 µM (inactive) throughout. The Kd in assay [7], in assay [8], in assay [9], in [10], in assay [11] and in assay [12] was > 30 µM (inactive) each time.
`O=c1sn(-c2cccc3ccccc23)c(=O)n1Cc1ccccc1` [TIDEGLUSIB]: the Kd in assay [1], in assay [2], in [3], in [4], in assay [5] and in assay [6] was > 30 µM (inactive) each time. Also, the Kd in [7], in [8], in [9], in assay [10], in assay [11] and in assay [12] was > 30 µM (inactive) in each case.
As to `COC(=O)[C@@]1(O)C[C@H]2O[C@]1(C)n1c3ccccc3c3c4c(c5c6ccccc6n2c5c31)C(=O)NC4` [K-252A], the Kd is > 30 µM (inactive) in assay [1]; > 30 µM (inactive) in assay [2]; > 30 µM (inactive) in assay [3]; > 30 µM (inactive) in assay [4]; 0.455 µM (active) in assay [5]; > 30 µM (inactive) in assay [6]. Also, the Kd in [7] was > 30 µM (inactive); in assay [8] it was 2.37 µM (active); in assay [9], > 30 µM (inactive); in [10], 1.36 µM (active); in [11] it was > 30 µM (inactive); in assay [12] it was > 30 µM (inactive).
As for `O=C(c1ccc(F)c(F)c1Nc1ccc(I)cc1F)N1CC(O)([C@@H]2CCCCN2)C1` [COBIMETINIB], the Kd in [1], in assay [2], in assay [3], in [4], in assay [5] and in [6] was > 30 µM (inactive) each time. For the same compound, the Kd in [7], in assay [8], in assay [9], in assay [10], in assay [11] and in [12] was > 30 µM (inactive) throughout.
As to `Cc1ccc(S(=O)(=O)Nc2nc3ccccc3nc2Nc2ccc3nsnc3c2)cc1`, the Kd in assay [1], in [2], in assay [3], in [4], in assay [5] and in assay [6] was > 30 µM (inactive) each time. Further, the Kd in assay [7], in [8], in [9], in assay [10], in assay [11] and in assay [12] was > 30 µM (inactive) throughout.

By Kd is commonly meant the equilibrium constant for the complex coming apart.
